pKd: −log10 of the molar value.
Target: T1, Integrin-linked kinase (ILK) (Homo sapiens, UniProt Q13418)
T1 sequence (Q13418 1-452): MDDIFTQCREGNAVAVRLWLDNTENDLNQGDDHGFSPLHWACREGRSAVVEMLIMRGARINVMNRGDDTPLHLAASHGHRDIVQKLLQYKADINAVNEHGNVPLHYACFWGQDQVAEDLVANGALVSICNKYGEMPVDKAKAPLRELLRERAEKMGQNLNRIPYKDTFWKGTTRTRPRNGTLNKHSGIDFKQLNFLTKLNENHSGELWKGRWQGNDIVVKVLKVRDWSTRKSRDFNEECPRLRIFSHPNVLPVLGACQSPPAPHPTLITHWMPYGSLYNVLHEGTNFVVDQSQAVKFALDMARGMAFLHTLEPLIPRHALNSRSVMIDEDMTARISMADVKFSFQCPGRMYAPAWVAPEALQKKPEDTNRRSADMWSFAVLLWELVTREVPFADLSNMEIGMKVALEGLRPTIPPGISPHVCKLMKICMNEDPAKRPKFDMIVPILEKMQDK
Assay: SPR (Biacore X-100, ILK immobilized on CM5 chip by amine coupling, Cpd22 […])
Format: binding

pKd: ~3.23
Structure (SMILES): CNC(=O)CCc1cc(-c2ccc(-c3ccc(C(F)(F)F)cc3)cc2)n(-c2ccc(N3CCNCC3)cc2)n1 [Cpd22]
